Data reported in patent US8440835B2, “Environmentally sensitive fluorophores” (Massachusetts Institute of Technology, priority 2007, dated 2013).
Each block holds one molecule with its values, some of them ahead of it.

Columns and labels:
Format in all cases: physicochemical
[1] = Fluorescence spectra of the KR peptide series in dioxane vs. TBS buffer; conditions: for fluorescence intensity ratio (Idioxane/ITBS), in words: at the wavelength of maximum emission intensity in dioxane
Method: This example illustrates investigations into the biological applications of the dimethylamino phthalimide series of environment sensitive fluorophores (FIGS. 3C-3E), as compared to both dansyl and NBD. A comparative study was performed on the fluorophores of FIG. 3 by synthetically preparing a series of lysine-arginine rich peptides (KR peptide series) such that each peptide in the series contained one of the five fluorophores appended to the side-chain of the residue at position 4 in the peptide sequence (FIG. 4), SEQ ID NOs: 5-9. The fluorescence spectra of the KR peptides were then measured at 5 micromolar in both TBS buffer (pH 7.4) and dioxane (containing 5 mM 18-crown-6). These conditions were selected to determine the magnitude of the fluorescence change for each fluorophore under an ideal set of conditions. […] An advantage of this property is a much improved signal-to-noise ratio for experimental measurements made in the context of real biological systems. […] While it is often possible to optimize the maximum fluorescence output by experimenting with the placement of the selected fluorophore on the protein of interest, the intrinsic fluorescence of the fluorophore in aqueous environments is often a limiting factor when optimizing the fluorescent response.

[2] = Exposure to standard Fmoc deprotection protocol (20% 4-methylpiperidine in DMF) on solid support, analysis by MALDI-MS, HPLC, ESI-MS
Method: This example illustrates the incorporation of 4DMAP and 6DMN into peptides by coupling an anhydride precursor of either fluorophore to a free amine on a fully synthesized peptide in the last step prior to cleaving the peptide from the solid support. […] This is evident in the experiment shown in FIG. 9 where the KR peptides of 4DMN and 6DMN were both exposed to a standard Fmoc deprotection protocol while still on solid support. Roughly 20 mg of resin for each peptide was transferred to a small 2 mL spin tube and treated at room temperature with a solution of 20% 4-methylpiperidine in DMF (3×5 min). The peptides were then cleaved from the resin and analyzed by MALDI-MS, HPLC, and ESI-MS.
The masses of these two peaks determined by ESI-MS were identical and confirmed to be that of the 4-methylpiperidine adduct. It is believed that the occurrence of the two byproduct peaks, instead of one, is due to varying retention times for the two possible isomers formed depending on which of the imide carbonyls are attacked by the base. […] The HPLC and ESI-MS analysis also confirmed that no reaction occurred. The 4DMNA amino acid appears to be unreactive under these conditions. Furthermore, it is worth emphasizing that the 4DMN chromophore was exposed to this same treatment twice previously during the preparation of the KR4DMN peptide using the 4DMNA Fmoc building-block.

[3] = Hydrolysis of the imide ring followed by fluorescence in PBS buffer over 24 hours
Method: The 4DMAP and 6DMN fluorophores are likely susceptible to the gradual hydrolysis of the imide ring system in the pH range of 7 to 8. The origin of this reactivity can be attributed to the bond angle strain of the five-membered imide ring system that is released during the ring opening process. […] This is apparent in an experiment performed on both the KR4DMAP and KR4DMN peptides using a PerkinElmer HTS7000 plate reader. Fluorescence of the two peptides was measured at their respective emission wavelengths in PBS buffer over a 24 hour period at 28° C.
The fluorophore remained intact throughout the 24 hr duration. This difference between the stability of 4DMN and that of 4DMAP is most evident at pH 8 where the rate of hydrolysis for 4DMAP is greatest (FIG. 7).

[4] = Resistance of the 4DMN side chain to solid-phase peptide synthesis conditions; conditions: 0.12 M diisopropylethylamine; 20% piperidine; 95% TFA
Method: The peptide synthesis was carried out using standard Fmoc-based solid phase peptide synthesis (SPPS) protocols on a 0.05 to 0.1 mmol scale using a 0.21 mmol/g loading PAL-PEG-PS solid support. Amino acids were coupled in three-fold excess using a mixture of 0.2 M HBTU/0.2 M HOBt in DMF as activating agents. Each amino acid was activated for two minutes with the HBTU/HOBt mixture (1 eq.) and diisopropylethylamine (DIPEA), 0.195 M in DMF (1.5 eq.) before being added to the resin. Peptide coupling was monitored using the 2,4,6-trinitrobenzenesulphonic acid (TNBS) test. Amino acids were used as protected Fmoc-amino acids with the standard side chain protecting groups. High-performance liquid chromatography (HPLC) was performed using a Waters 600E HPLC fitted with a Waters 600 automated control module and a Waters 2487 dual wavelength absorbance detector recording at 228 and 280 nm. For analytical HPLC, a Beckman Ultrasphere C18, 5 micrometer, 4.6×150 mm reverse-phase column was used. For preparative separations, a YMC-pack, C18, 250×20 mm reversed phase column was used. The standard gradient for analytical and preparative HPLC used was 93:7 to 5:95 over 35 minutes (water:acetonitrile, 0.1% TFA).

Molecule: CN(C)c1ccc2c3c(cccc13)C(=O)N(CC(N)C(=O)O)C2=O (stereo not drawn) [4DMNA]
formation of 4-methylpiperidine adduct ([2]; 20% 4-methylpiperidine in DMF, 3×5 min, room temperature, on resin): unreactive

Molecule: CN(C)c1ccc2c3c(cccc13)C(=O)NC2=O [4DMN, 4-N,N-dimethylamino-1,8-naphthalimide]
hydrolysis of the imide ring system ([3]; pH range of 7 to 8): no such reactivity
resistance to peptide synthesis conditions [4]: resistant
fluorescence intensity ratio (Idioxane/ITBS), in words [1]: greater than three orders of magnitude

Molecule: CN(C)c1ccc2cc3c(cc2c1)C(=O)NC3=O [6DMN, 6-N,N-dimethylamino-2,3-naphthalimide]
fluorescence intensity ratio (Idioxane/ITBS), in words [1]: greater than three orders of magnitude

Molecule: CN(C)c1ccc2c(c1)C(=O)NC2=O [4DMAP, 4-dimethylamino phthalimide, reference compound]
rate of hydrolysis ([3]; pH 8, PBS buffer, 28° C.): significantly enhanced
fluorescence intensity ratio (Idioxane/ITBS), in words [1]: greater than three orders of magnitude

Other lines, results leading:

λexc ([1]; KR peptide series): below 350 nm
Molecule: dansyl

susceptibility to nucleophilic attack by bases like 4-methylpiperidine ([2]; use in preparation of various peptides): no susceptibility
Molecule: CN(C)c1ccc2c3c(cccc13)C(=O)N(CC(NC(=O)OCC1c3ccccc3-c3ccccc31)C(=O)O)C2=O (stereo not drawn) [Fmoc-4DMNA, N-α-Fmoc-(4-N,N-dimethylamino-1,8-naphthalimido) alanine]
